Laboratory results taken from article PMC6273065, “Synthesis, Molecular Modelling and Biological Evaluation of Novel Heterodimeric, Multiple Ligands Targeting Cholinesterases and Amyloid Beta” (Molecules, 2016).
Like-named read-outs stand apart in the source and are kept apart here. Marks after values point to notes of the source that are not given here.

Legend:
[1] = tested on: Aβ12–23; conditions: 50 µM compound, self-induced Aβ12–23 aggregation; mean ± SD; cited from earlier work
[2] = molecular target: T1, EeAChE (Electrophorus electricus, UniProt O42275); assay: Kinetic characterization of EeAChE inhibition (Lineweaver–Burk, Cornish–Bowden plots); type: biochemical; conditions: Lineweaver–Burk and Cornish–Bowden plots, ATC 0.067–0.5 mM
T1 construct: purchased Sigma–Aldrich
Protocol: Both types of inhibition were further confirmed by Cornish–Bowden plots (S/V vs. [I]) (A. in Supplementary Materials).
To estimate the type of inhibition of EeAChE, the same experimental protocol as reported above (4.3.1) was performed. Different concentrations of the substrate ATC (0.067–0.5 mM) were used to create Lineweaver-Burk plots by plotting the inverse initial velocity (1/V) as a function of the inverse of the substrate concentration (1/[S]). The stock solution of ATC (0.5 mM in a well) was prepared in water and diluted before use to obtained 0.4, 0.3, 0.2, 0.1and 0.067 mM concentrations of substrate. The double reciprocal plots were assessed by a weighted least square analysis that assumed the variance of V to be a constant percentage of V for the entire data set. Each experiment was performed in triplicate. Then, to confirm the mode of inhibition, Cornish-Bowden plots were obtained by plotting S/V (substrate concentration/velocity ratio) versus the inhibitor concentration [I]. Data analysis was performed with GraphPad Prism 5.

[3] = molecular target: T1, EeAChE; assay: biochemical; type: biochemical
Protocol: (§1) Ellman’s method was used to determine the activity of the synthesized compounds against AChE from electric eel (Electrophorus electricus, EeAChE) and BuChE from equine serum (EqBuChE).
(§2) All assays were performed in 0.1 M phosphate buffer pH 8.0. The tested compounds or water in a blank sample (25 µL) were incubated with the enzyme (20 µL) for 5 min at 25 °C in buffer (765 µL) prior to starting the reaction. Then, DTNB (20 µL) and ATC (20 µL) were added. […] Each condition was measured in triplicate. The percentages of enzyme inhibition were calculated from the equation 100%—Ai/A0 × 100%, where Ai is the absorbance of a sample with an inhibitor and A0 is the absorbance of a blank sample (100% activity of the enzyme). The IC50 values were calculated using GraphPad Prism 5. Data is expressed as mean ± SEM.

[4] = molecular target: T2, Aβ1–42 (Homo sapiens, UniProt P05067); assay: Thioflavin-T fluorometric assay of self-induced Aβ1–42 aggregation; type: biochemical; conditions: 10 µM compound, 1.5 µM Aβ1–42; mean ± SD; <10 = defined as not active; read-out: Aβ1–42 Aggreg. % of inhibition
T2 construct: Recombinant human HFIP-pretreated Aβ1–42 peptide; purchased Merck Millipore Lot number 2387442
Excerpt: Mechanisms of Aβ aggregation remain unclear. Besides the self-induced assembly of Aβ, several other factors affect its aggregation, including metal ions, AChE [45], and oxidative stress. Therefore, we evaluated our compounds using the most versatile and commonly used Aβ1–42 aggregation Thioflavin T assay. Seven structurally diverse compounds were selected (one from each subseries) to test their ability to inhibit self-induced Aβ1–42 aggregation.
Thioflavin-T (ThT) fluorometric assay was performed to investigate the effect of the test compounds on the self-aggregation of Aβ1–42. […] Each sample was prepared in quadruplicate, and the DMSO was always at 3%. To quantify amyloid fibril formation, the ThT fluorescence was measured through the bottom of the plate every 180 s at an excitation wavelength of 440 nm and emission wavelength of 490 nm, with the medium continuously shaking between measurements using a 96-well microplate reader (Synergy™ H4, BioTek Instruments, Inc., Winooski, VT, USA). […] The fluorescence intensities at the plateau in the absence and presence of the test compounds were averaged, and the average fluorescence of the corresponding wells at t = 0 h was subtracted.

[5] = PAMPA-BBB; for Log Pe: 2 h at 37 °C, means of two replicates; for Prediction of BBB penetration: class from log Pe
Protocol: For anti-Alzheimer drug candidates, the ability to cross the blood–brain barrier and to enter the central nervous system (CNS) is crucial to achieve their pharmacological target and activity.
The BBB-PAMPA Explorer Test System was purchased from pION Inc. The in vitro permeability through BBB-1 lipid membrane was determined for 7 commercial drugs and the tested compounds. The compounds were dissolved in DMSO (10 mM stock solution) and diluted with Prisma HT buffer (5 µL/1 mL). Then, the […] 96-well microplate was filled with solution of the tested compounds in buffer (200 µL/well). The filter membrane in acceptor 96-well microplate was impregnated with BBB-1 lipid solution (5 µL/well) and the acceptor plate was filled with Brain Sink Buffer (200 µL/well). The acceptor plate was carefully placed on the donor plate to form a sandwich that was left undisturbed for 2 h at 37 °C. After incubation, the donor plate was carefully removed. The concentration of compounds in the acceptor, the donor, and the reference wells were measured using EnSpire Multimode Microplate Reader (PerkinElmer).

[6] = molecular target: T3, EqBuChE (Equus caballus, UniProt P81908); assay: biochemical
T3 construct: BuChE from equine serum (EqBuChE, Sigma–Aldrich); purchased Sigma–Aldrich; host or cells: equine serum
Protocol: as §1, §2

[7] = molecular target: T1, EeAChE; conditions: cited from earlier work
[8] = molecular target: T3, EqBuChE; conditions: % inhibition at 50 μM lower than 50%; cited from earlier work
[9] = molecular target: T2, Aβ1–42; parameters: method as in PMID 26032855; conditions: 10 µM compound, self-induced; mean ± SD; cited from earlier work

T1 sequence (O42275 24-633): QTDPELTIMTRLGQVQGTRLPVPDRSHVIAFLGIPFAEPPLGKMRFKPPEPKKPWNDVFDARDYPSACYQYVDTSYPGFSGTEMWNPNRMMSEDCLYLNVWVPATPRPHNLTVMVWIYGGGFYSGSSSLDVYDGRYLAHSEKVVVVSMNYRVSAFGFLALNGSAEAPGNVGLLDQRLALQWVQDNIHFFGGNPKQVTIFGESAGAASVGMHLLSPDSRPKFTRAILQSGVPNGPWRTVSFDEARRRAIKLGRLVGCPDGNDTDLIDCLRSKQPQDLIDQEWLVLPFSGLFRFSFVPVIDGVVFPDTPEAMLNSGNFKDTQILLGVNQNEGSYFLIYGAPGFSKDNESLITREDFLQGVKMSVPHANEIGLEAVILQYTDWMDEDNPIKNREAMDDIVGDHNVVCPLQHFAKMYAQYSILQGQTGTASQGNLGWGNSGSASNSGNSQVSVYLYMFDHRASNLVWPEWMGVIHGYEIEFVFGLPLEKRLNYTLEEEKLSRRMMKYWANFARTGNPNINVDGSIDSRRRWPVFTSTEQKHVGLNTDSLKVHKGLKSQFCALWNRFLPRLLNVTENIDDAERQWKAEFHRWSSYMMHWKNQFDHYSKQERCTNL
T3 sequence (P81908 whole entry): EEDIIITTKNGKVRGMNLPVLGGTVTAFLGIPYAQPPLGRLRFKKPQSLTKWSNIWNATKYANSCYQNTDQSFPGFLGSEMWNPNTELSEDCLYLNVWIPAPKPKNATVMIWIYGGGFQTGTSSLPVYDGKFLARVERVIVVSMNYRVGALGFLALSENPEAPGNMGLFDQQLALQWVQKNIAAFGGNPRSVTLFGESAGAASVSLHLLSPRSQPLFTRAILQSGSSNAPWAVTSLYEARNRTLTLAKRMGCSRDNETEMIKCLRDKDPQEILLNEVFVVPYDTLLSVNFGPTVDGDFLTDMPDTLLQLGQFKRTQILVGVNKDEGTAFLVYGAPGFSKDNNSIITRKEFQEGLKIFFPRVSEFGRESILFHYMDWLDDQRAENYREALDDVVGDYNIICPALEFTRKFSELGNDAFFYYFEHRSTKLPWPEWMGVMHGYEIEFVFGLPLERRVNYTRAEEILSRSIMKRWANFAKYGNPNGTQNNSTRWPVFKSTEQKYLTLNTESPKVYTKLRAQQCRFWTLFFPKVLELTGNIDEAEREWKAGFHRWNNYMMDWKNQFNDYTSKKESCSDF
T2 sequence (P05067 672-713): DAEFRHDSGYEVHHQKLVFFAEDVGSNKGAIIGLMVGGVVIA

| Compound | Aβ12–23 aggregation % of inhibition [1] | type of EeAChE inhibition [2] | IC50 [3] | inhibition at 10 µM [4] | Log Pe [5] | Prediction of BBB penetration [5] | IC50 [6] | IC50 [7] | IC50 [8] | Aβ1–42 Aggreg. % of inhibition [9] |
| --- | --- | --- | --- | --- | --- | --- | --- | --- | --- | --- |
| CCN(CC)CCCCCCCCN1C(=O)c2ccccc2C1=O [Compd. I] | 30.10 ± 5.78 ^f % | – | – | – | – | – | – | – | – | – |
| O=C1c2ccccc2C(=O)N1CCCCCCCCN1CCCC1 [Compound 4, 2-(8-(Pyrrolidin-1-yl)octyl)isoindoline-1,3-dione] | – | mixed type of enzyme inhibition | 282 ± 11 nM | 15.2 ± 3.06% | –4.0 | CNS+ (CNS+, log Pe > −4.5, high permeability (i.e., can enter the CNS)) | 3240 ± 141 nM | – | – | – |
| O=C1c2ccccc2C(=O)N1CCCCCCN1CCc2ccccc2C1 [Compound 11, 2-(6-(3,4-dihydroisoquinolin-2(1H)-yl)hexyl)isoindoline-1,3-dione] | – | mixed type of enzyme inhibition | 387 ± 3 nM | – | – | – | 5120 ± 90 nM | – | – | – |
| O=C1c2ccccc2S(=O)(=O)N1CCCCCNCc1cccc(Cl)c1 [Compound 42, 2-(5-(3-chlorobenzylamino)pentyl)benzo[d]isothiazol-3(2H)-one 1,1-dioxide] | – | linear non-competitive type of inhibition | 70 ± 1 nM | 16.5 ± 3.01% | –4.3 | CNS+ (CNS+, log Pe > −4.5, high permeability (i.e., can enter the CNS)) | > 50000 nM | – | – | – |
| O=C1c2ccccc2C(=O)N1CCCCCCCN1CCCC1 [Compound 3, 2-(7-(Pyrrolidin-1-yl)heptyl)isoindoline-1,3-dione] | – | mixed type of enzyme inhibition | 276 ± 3 nM | – | – | – | > 50000 nM | – | – | – |
| O=C1c2ccccc2S(=O)(=O)N1CCCCCNCc1ccccc1 [Compd. II] | – | – | – | – | – | – | – | 36 ± 1 nM | > 50000 nM | 22.19 ± 16.6% |
